Test results: the CheMixHub viscosity set

Assay: xn = mol fraction of the nth substance listed

C[N+](=O)[O-] + c1ccccc1
Details	viscosity [mPa·s]
293.15 K, 101.33 kPa, x1 = 0.0919	0.627
293.15 K, 101.33 kPa, x1 = 0.2238	0.606
293.15 K, 101.33 kPa, x1 = 0.2978	0.597
293.15 K, 101.33 kPa, x1 = 0.3994	0.587
293.15 K, 101.33 kPa, x1 = 0.494	0.582
293.15 K, 101.33 kPa, x1 = 0.7053	0.585
293.15 K, 101.33 kPa, x1 = 0.8004	0.595
293.15 K, 101.33 kPa, x1 = 0.9073	0.62
298.15 K, 101 kPa, x1 = 0.1559	0.5732
298.15 K, 101 kPa, x1 = 0.294	0.5584
298.15 K, 101 kPa, x1 = 0.4165	0.5532
298.15 K, 101 kPa, x1 = 0.5262	0.5534
298.15 K, 101 kPa, x1 = 0.6247	0.5571
298.15 K, 101 kPa, x1 = 0.7142	0.5652
298.15 K, 101 kPa, x1 = 0.7953	0.577
298.15 K, 101 kPa, x1 = 0.8693	0.5909
298.15 K, 101 kPa, x1 = 0.9376	0.6098
298.15 K, 101 kPa, x2 = 0.1005	0.6116
298.15 K, 101 kPa, x2 = 0.2025	0.5886
298.15 K, 101 kPa, x2 = 0.3017	0.5772
298.15 K, 101 kPa, x2 = 0.4012	0.5724
298.15 K, 101 kPa, x2 = 0.5019	0.5707
298.15 K, 101 kPa, x2 = 0.6014	0.5751
298.15 K, 101 kPa, x2 = 0.7074	0.5817
298.15 K, 101 kPa, x2 = 0.7985	0.5905
298.15 K, 101 kPa, x2 = 0.8947	0.6035
303.15 K, 101 kPa, x2 = 0.1005	0.5803
303.15 K, 101 kPa, x2 = 0.2025	0.5594
303.15 K, 101 kPa, x2 = 0.3017	0.5479
303.15 K, 101 kPa, x2 = 0.4012	0.5438
303.15 K, 101 kPa, x2 = 0.5019	0.5405
303.15 K, 101 kPa, x2 = 0.6014	0.5447
303.15 K, 101 kPa, x2 = 0.7074	0.5475
303.15 K, 101 kPa, x2 = 0.7985	0.556
303.15 K, 101 kPa, x2 = 0.8947	0.5662
308.15 K, 101 kPa, x2 = 0.1005	0.5518
308.15 K, 101 kPa, x2 = 0.2025	0.5299
308.15 K, 101 kPa, x2 = 0.3017	0.5201
308.15 K, 101 kPa, x2 = 0.4012	0.5142
308.15 K, 101 kPa, x2 = 0.5019	0.512
308.15 K, 101 kPa, x2 = 0.6014	0.5126
308.15 K, 101 kPa, x2 = 0.7074	0.5157
308.15 K, 101 kPa, x2 = 0.7985	0.5234
308.15 K, 101 kPa, x2 = 0.8947	0.5309
313.15 K, 101 kPa, x2 = 0.1005	0.5218
313.15 K, 101 kPa, x2 = 0.2025	0.5031
313.15 K, 101 kPa, x2 = 0.3017	0.4923
313.15 K, 101 kPa, x2 = 0.4012	0.4862
313.15 K, 101 kPa, x2 = 0.5019	0.4829
313.15 K, 101 kPa, x2 = 0.6014	0.4843
313.15 K, 101 kPa, x2 = 0.7074	0.4865
313.15 K, 101 kPa, x2 = 0.7985	0.4912
313.15 K, 101 kPa, x2 = 0.8947	0.4977

ClC1CCCCC1 + C1CCOCC1
viscosity [mPa·s], 101.3 kPa
Details	x2 = 0.1031	x2 = 0.2	x2 = 0.3037	x2 = 0.4038	x2 = 0.4996	x2 = 0.6036	x2 = 0.6992	x2 = 0.8038	x2 = 0.9034
298.15 K	1.459	1.364	1.27	1.188	1.114	1.04	0.9774	0.9135	0.8561
313.15 K	1.141	1.073	1.002	0.9418	0.8879	0.8332	0.7853	0.7364	0.6928

CCCCC(CC)COP(=O)(O)OCC(CC)CCCC (stereo unspecified) + CCCO
303.15 K, 101 kPa
Details	viscosity [mPa·s]
x1 = 0.0388	2.397
x1 = 0.0845	3.204
x1 = 0.1765	4.994
x1 = 0.2522	6.571
x1 = 0.3449	8.647
x1 = 0.4687	11.29
x1 = 0.6123	13.8
x1 = 0.7274	15.62
x1 = 0.8109	16.82
x1 = 0.9261	18.45
